Legend:
[1] = tested on: HCT116 colorectal cancer cells; assay: Cisplatin Sensitization Assay (96 h cell viability MTS); format: cell-based; conditions: concentration of compound required to reduce the IC50 of Cisplatin alone by at least 3-fold; HCT116, 96 h MTS
Protocol: Compounds can be screened for their ability to sensitize HCT116 colorectal cancer cells to Cisplatin using a 96 h cell viability (MTS) assay. […] Compounds and Cisplatin are then both added simultaneously to the cell media in 2-fold serial dilutions from a top final concentration of 10 μM as a full matrix of concentrations in a final cell volume of 200 μl, and the cells are then incubated at 37° C. in 5% CO2. After 96 h, 40 μl of MTS reagent (Promega G358a) is added to each well and the cells are incubated for 1 h at 37° C. in 5% CO2. Finally, absorbance is measured at 490 nm using a SpectraMax Plus 384 reader (Molecular Devices) and the concentration of compound required to reduce the IC50 of Cisplatin alone by at least 3-fold (to 1 decimal place) can be reported.

[2] = target: T1, ATR kinase (full-length ATR) (Homo sapiens, UniProt Q13535); assay: ATR Inhibition Assay (radioactive-phosphate incorporation); format: biochemical; conditions: Ki(app); 5 nM full-length ATR, 10 μM ATP, 800 μM target peptide, 25° C.
T1 construct: in the presence of 5 nM full-length ATR
T1 sequence (Q13535 whole entry): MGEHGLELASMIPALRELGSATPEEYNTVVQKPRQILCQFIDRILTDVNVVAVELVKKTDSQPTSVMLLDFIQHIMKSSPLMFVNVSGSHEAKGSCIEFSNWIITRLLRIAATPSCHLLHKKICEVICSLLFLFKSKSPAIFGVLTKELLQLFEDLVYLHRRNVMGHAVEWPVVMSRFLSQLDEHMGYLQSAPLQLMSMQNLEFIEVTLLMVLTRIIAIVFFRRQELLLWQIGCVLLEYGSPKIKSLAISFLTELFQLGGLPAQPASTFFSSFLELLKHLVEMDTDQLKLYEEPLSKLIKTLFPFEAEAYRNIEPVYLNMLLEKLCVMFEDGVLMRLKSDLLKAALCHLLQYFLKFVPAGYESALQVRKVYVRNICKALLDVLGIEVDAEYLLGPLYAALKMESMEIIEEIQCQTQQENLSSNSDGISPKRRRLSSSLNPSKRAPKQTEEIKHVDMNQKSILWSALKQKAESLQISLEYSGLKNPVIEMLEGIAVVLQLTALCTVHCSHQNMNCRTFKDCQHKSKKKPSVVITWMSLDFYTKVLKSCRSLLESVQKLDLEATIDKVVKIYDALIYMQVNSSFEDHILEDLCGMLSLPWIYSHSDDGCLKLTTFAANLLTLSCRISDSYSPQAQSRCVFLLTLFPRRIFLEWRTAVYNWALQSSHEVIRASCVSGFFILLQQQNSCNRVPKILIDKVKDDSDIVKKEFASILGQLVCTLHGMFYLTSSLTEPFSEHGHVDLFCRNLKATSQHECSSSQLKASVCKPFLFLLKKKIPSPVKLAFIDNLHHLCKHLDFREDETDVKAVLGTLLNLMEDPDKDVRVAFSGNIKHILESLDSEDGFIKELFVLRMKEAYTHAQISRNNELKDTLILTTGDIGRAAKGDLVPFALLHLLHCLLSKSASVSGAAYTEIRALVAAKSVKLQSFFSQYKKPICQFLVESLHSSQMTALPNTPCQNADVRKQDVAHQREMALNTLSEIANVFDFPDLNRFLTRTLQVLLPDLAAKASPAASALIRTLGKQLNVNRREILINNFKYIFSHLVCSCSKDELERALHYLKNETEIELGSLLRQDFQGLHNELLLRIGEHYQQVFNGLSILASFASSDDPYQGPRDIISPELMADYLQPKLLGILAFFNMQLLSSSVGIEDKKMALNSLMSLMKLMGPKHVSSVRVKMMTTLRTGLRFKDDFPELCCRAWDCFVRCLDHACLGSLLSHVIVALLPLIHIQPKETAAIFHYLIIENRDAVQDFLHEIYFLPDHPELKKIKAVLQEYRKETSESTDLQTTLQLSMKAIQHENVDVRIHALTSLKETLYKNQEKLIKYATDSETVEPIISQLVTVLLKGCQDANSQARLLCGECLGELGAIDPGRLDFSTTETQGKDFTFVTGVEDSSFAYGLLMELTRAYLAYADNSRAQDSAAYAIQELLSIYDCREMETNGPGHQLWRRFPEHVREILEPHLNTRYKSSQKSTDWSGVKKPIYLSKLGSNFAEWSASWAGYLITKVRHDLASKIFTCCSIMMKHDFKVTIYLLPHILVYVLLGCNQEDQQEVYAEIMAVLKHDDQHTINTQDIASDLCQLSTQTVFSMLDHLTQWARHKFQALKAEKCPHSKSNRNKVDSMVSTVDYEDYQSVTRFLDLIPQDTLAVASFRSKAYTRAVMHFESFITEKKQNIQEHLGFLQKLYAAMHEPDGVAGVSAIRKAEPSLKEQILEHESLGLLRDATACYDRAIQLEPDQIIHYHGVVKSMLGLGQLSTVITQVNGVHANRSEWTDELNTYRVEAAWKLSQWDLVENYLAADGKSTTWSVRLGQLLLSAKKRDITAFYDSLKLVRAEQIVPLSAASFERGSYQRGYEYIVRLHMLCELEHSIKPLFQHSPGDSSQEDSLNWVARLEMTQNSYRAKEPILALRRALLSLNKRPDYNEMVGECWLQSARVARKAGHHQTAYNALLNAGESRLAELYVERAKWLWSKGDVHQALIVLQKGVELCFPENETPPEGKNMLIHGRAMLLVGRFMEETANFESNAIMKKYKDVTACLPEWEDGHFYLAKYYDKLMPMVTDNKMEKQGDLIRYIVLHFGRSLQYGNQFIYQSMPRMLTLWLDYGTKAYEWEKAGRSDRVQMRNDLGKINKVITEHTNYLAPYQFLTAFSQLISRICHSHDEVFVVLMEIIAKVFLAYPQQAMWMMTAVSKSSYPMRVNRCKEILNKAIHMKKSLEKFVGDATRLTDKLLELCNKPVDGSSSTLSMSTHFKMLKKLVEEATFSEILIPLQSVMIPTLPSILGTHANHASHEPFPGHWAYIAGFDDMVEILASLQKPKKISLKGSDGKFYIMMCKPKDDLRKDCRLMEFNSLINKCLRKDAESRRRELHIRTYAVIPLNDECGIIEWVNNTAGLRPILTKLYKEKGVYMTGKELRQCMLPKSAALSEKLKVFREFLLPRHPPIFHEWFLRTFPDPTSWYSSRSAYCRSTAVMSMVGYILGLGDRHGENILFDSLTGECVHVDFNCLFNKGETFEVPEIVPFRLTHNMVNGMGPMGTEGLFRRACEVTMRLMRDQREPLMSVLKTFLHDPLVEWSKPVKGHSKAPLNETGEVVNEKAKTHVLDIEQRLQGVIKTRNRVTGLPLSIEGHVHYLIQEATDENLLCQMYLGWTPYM
Protocol: Compounds were screened for their ability to inhibit ATR kinase using a radioactive-phosphate incorporation assay. Assays were carried out in a mixture of 50 mM Tris/HCl (pH 7.5), 10 mM MgCl2 and 1 mM DTT. Final substrate concentrations were 10 μM [γ-33P]ATP (3 mCi 33P ATP/mmol ATP, Perkin Elmer) and 800 μM target peptide (ASELPASQPQPFSAKKK (SEQ. ID NO: 1)).
Assays were carried out at 25° C. in the presence of 5 nM full-length ATR. An assay stock buffer solution was prepared containing all of the reagents listed above, with the exception of ATP and the test compound of interest. 13.5 μL of the stock solution was placed in a 96 well plate followed by addition of 2 μL of DMSO stock containing serial dilutions of the test compound (typically starting from a final concentration of 15 μM with 3-fold serial dilutions) in duplicate (final DMSO concentration 7%). The plate was pre-incubated for 10 minutes at 25° C. and the reaction initiated by addition of 15 μL [γ-33P]ATP (final concentration 10 μM).
The reaction was stopped after […] by the addition of 30 μL 0.1M phosphoric acid containing 2 mM ATP. A multiscreen phosphocellulose filter 96-well plate (Millipore, Cat no. MAPHN0B50) was pretreated with 100 μL 0.2M phosphoric acid prior to the addition of 45 μL of the stopped assay mixture. The plate was washed with 5×200 μL 0.2M phosphoric acid. After drying, 100 μL Optiphase ‘SuperMix’ liquid scintillation cocktail (Perkin Elmer) was added to the well prior to scintillation counting (1450 Microbeta Liquid Scintillation Counter, Wallac).
After removing mean background values for all of the data points, Ki(app) data were calculated from non-linear regression analysis of the initial rate data using the Prism software package (GraphPad Prism version 3.0cx for Macintosh, GraphPad Software, San Diego Calif., USA).

Row | Ki [2] [nM] | SMILES | Cisplatin Sensitization Assay [1]
1 | < 10 | Nc1nn2cc(F)cnc2c1C(=O)Nc1cnncc1N1CCC(C(=O)N2CC(F)C2)CC1 [I-B-22, 2-amino-6-fluoro-N-(5-(4-(3-fluoroazetidine-1-carbonyl)piperidin-1-yl)pyridazin-4-yl)pyrazolo[1,5-a]pyrimidine-3-carboxamide] | +++ (Compounds with a Cisplatin sensitization value of <0.02 μM are marked with “+++.”)
2 | 10 to 1000 | Nc1nn2cc(F)cnc2c1C(=O)Nc1ccncc1N1CCC(C(=O)N2CCC(N3CCCC3)CC2)CC1 [I-C-8, 2-amino-6-fluoro-N-(3-(4-(4-(pyrrolidin-1-yl)piperidine-1-carbonyl)piperidin-1-yl)pyridin-4-yl)pyrazolo[1,5-a]pyrimidine-3-carboxamide] | +++ (Compounds with a Cisplatin sensitization value of <0.02 μM are marked with “+++.”)
3 | 10 to 1000 | Nc1nn2cc(F)cnc2c1C(=O)Nc1ccncc1N1CCCC1 [I-C-11, 2-amino-6-fluoro-N-(3-(pyrrolidin-1-yl)pyridin-4-yl)pyrazolo[1,5-a]pyrimidine-3-carboxamide] | ++ (Compounds with a Cisplatin sensitization value >0.02 μM but <0.2 μM are marked with “++.”)
4 | 10 to 1000 | Nc1nn2cc(F)cnc2c1C(=O)Nc1cnncc1N1CCC(CN2CCOCC2)CC1 [I-B-8, 2-amino-6-fluoro-N-(5-(4-(morpholinomethyl)piperidin-1-yl)pyridazin-4-yl)pyrazolo[1,5-a]pyrimidine-3-carboxamide] | ++ (Compounds with a Cisplatin sensitization value >0.02 μM but <0.2 μM are marked with “++.”)
5 | < 10 | CS(=O)(=O)C1CCN(c2cnccc2NC(=O)c2c(N)nn3cc(F)cnc23)CC1 [I-C-10, 2-amino-6-fluoro-N-(3-(4-(methylsulfonyl)piperidin-1-yl)pyridin-4-yl)pyrazolo[1,5-a]pyrimidine-3-carboxamide] | +++ (Compounds with a Cisplatin sensitization value of <0.02 μM are marked with “+++.”)
6 | 10 to 1000 | Cc1nsc(NC(=O)c2c(N)nn3cc(F)cnc23)c1N1CCCC1 [I-E-21, 2-amino-6-fluoro-N-(3-methyl-4-(pyrrolidin-1-yl)isothiazol-5-yl)pyrazolo[1,5-a]pyrimidine-3-carboxamide] | ++ (Compounds with a Cisplatin sensitization value >0.02 μM but <0.2 μM are marked with “++.”)
7 | 10 to 1000 | Cc1ncc(NC(=O)c2c(N)nn3cc(F)cnc23)n1-c1ccccc1 [I-D-6, 2-amino-6-fluoro-N-(2-methyl-1-phenyl-1H-imidazol-5-yl)pyrazolo[1,5-a]pyrimidine-3-carboxamide] | +++ (Compounds with a Cisplatin sensitization value of <0.02 μM are marked with “+++.”)
8 | 10 to 1000 | CN(C)[C@H]1CC[C@H](Oc2ncncc2NC(=O)c2c(N)nn3cc(F)cnc23)CC1 [I-A-12, 2-amino-N-(4-(((1r,4r)-4-(dimethylamino)cyclohexyl)oxy)pyrimidin-5-yl)-6-fluoropyrazolo[1,5-a]pyrimidine-3-carboxamide] | ++ (Compounds with a Cisplatin sensitization value >0.02 μM but <0.2 μM are marked with “++.”)
9 | < 10 | Cc1nsc(NC(=O)c2c(N)nn3cc(F)cnc23)c1CN1CCN(C)CC1 [I-E-19, 2-amino-6-fluoro-N-(3-methyl-4-((4-methylpiperazin-1-yl)methyl)isothiazol-5-yl)pyrazolo[1,5-a]pyrimidine-3-carboxamide] | +++ (Compounds with a Cisplatin sensitization value of <0.02 μM are marked with “+++.”)
10 | 1000 to 5000 | CN1CCC[C@@H](Oc2ncncc2NC(=O)c2c(N)nn3cc(F)cnc23)C1 [I-A-1, (R)-2-amino-6-fluoro-N-(4-((1-methylpiperidin-3-yl)oxy)pyrimidin-5-yl)pyrazolo[1,5-a]pyrimidine-3-carboxamide] | + (Compounds with a Cisplatin sensitization value >0.2 μM but <5 μM are marked with “+.”)
11 | 10 to 1000 | COc1ncncc1NC(=O)c1c(N)nn2cc(CC#N)cnc12 [I-A-17, 2-amino-6-(cyanomethyl)-N-(4-methoxypyrimidin-5-yl)pyrazolo[1,5-a]pyrimidine-3-carboxamide] | ++ (Compounds with a Cisplatin sensitization value >0.02 μM but <0.2 μM are marked with “++.”)

The next lines start with the compound.

Row | SMILES | Ki [2] [nM] | Cisplatin Sensitization Assay [1]
12 | Cc1nsc(NC(=O)c2c(N)nn3cc(F)cnc23)c1-n1cccn1 [I-E-10, 2-amino-6-fluoro-N-(3-methyl-4-(1H-pyrazol-1-yl)isothiazol-5-yl)pyrazolo[1,5-a]pyrimidine-3-carboxamide] | < 10 | +++ (Compounds with a Cisplatin sensitization value of <0.02 μM are marked with “+++.”)
13 | Nc1nn2cc(F)cnc2c1C(=O)Nc1cnncc1N1CCCCC1 [I-B-9, 2-amino-6-fluoro-N-(5-(piperidin-1-yl)pyridazin-4-yl)pyrazolo[1,5-a]pyrimidine-3-carboxamide] | 10 to 1000 | +++ (Compounds with a Cisplatin sensitization value of <0.02 μM are marked with “+++.”)
14 | Nc1nn2cc(F)cnc2c1C(=O)Nc1cncnc1OC1CCN(C2COC2)CC1 [I-A-8, 2-amino-6-fluoro-N-(4-((1-(oxetan-3-yl)piperidin-4-yl)oxy)pyrimidin-5-yl)pyrazolo[1,5-a]pyrimidine-3-carboxamide] | 10 to 1000 | +++ (Compounds with a Cisplatin sensitization value of <0.02 μM are marked with “+++.”)
15 | Nc1nn2cc(F)cnc2c1C(=O)Nc1cncnc1O[C@@H]1CN2CCC1CC2 [I-A-4, (S)-2-amino-6-fluoro-N-(4-(quinuclidin-3-yloxy)pyrimidin-5-yl)pyrazolo[1,5-a]pyrimidine-3-carboxamide] | 10 to 1000 | ++ (Compounds with a Cisplatin sensitization value >0.02 μM but <0.2 μM are marked with “++.”)
16 | CN1CCN(c2cnncc2NC(=O)c2c(N)nn3cc(F)cnc23)CC1 [I-B-1, 2-amino-6-fluoro-N-(5-(4-methylpiperazin-1-yl)pyridazin-4-yl)pyrazolo[1,5-a]pyrimidine-3-carboxamide] | 10 to 1000 | ++ (Compounds with a Cisplatin sensitization value >0.02 μM but <0.2 μM are marked with “++.”)
17 | CS(=O)(=O)C1CCN(c2cnncc2NC(=O)c2c(N)nn3cc(F)cnc23)CC1 [I-B-23, 2-amino-6-fluoro-N-(5-(4-(methylsulfonyl)piperidin-1-yl)pyridazin-4-yl)pyrazolo[1,5-a]pyrimidine-3-carboxamide] | 10 to 1000 | ++ (Compounds with a Cisplatin sensitization value >0.02 μM but <0.2 μM are marked with “++.”)
18 | CN1CCC(Oc2ncncc2NC(=O)c2c(N)nn3cc(Cl)cnc23)CC1 [I-A-6, 2-amino-6-chloro-N-(4-((1-methylpiperidin-4-yl)oxy)pyrimidin-5-yl)pyrazolo[1,5-a]pyrimidine-3-carboxamide] | 1000 to 5000 | ++ (Compounds with a Cisplatin sensitization value >0.02 μM but <0.2 μM are marked with “++.”)
19 | Nc1nn2cc(F)cnc2c1C(=O)Nc1cnncc1N1CCC(CN2CCC(F)(F)C2)CC1 [I-B-6, 2-amino-N-(5-(4-((3,3-difluoropyrrolidin-1-yl)methyl)piperidin-1-yl)pyridazin-4-yl)-6-fluoropyrazolo[1,5-a]pyrimidine-3-carboxamide] | 10 to 1000 | +++ (Compounds with a Cisplatin sensitization value of <0.02 μM are marked with “+++.”)

Source: patent US8957078B2, “Compounds useful as inhibitors of ATR kinase” (Vertex Pharmaceuticals Incorporated, priority 2013, dated 2015)
